According to patent US11680060B2, “Bicycloheptane pyrrolidine orexin receptor agonists” (Merck Sharp & Dohme LLC, priority 2020, dated 2023):

Biological target: human OX2R (Homo sapiens (Human), UniProt O43614)
Assay: IPOne (IP-1) assay in CHO cells expressing human OX2R
Assay type: cell-based
Conditions: CHO, percentage of mean max effect of a reference compound at 1 uM (100% activity by comparison to Orexin A), human OX2R; read-out: Emax (%)
Procedure, shortened: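 CHO cells stably expressing human OX2R were stimulated with compound (10-point ½-log dilutions) for 2 h at 37 °C. IP-1 accumulation was read by HTRF (IP-One, 665/620 nm). EC50 from a four-parameter fit; % effect relative to 1 μM reference agonist control.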

Sequence of human OX2R (O43614 whole entry): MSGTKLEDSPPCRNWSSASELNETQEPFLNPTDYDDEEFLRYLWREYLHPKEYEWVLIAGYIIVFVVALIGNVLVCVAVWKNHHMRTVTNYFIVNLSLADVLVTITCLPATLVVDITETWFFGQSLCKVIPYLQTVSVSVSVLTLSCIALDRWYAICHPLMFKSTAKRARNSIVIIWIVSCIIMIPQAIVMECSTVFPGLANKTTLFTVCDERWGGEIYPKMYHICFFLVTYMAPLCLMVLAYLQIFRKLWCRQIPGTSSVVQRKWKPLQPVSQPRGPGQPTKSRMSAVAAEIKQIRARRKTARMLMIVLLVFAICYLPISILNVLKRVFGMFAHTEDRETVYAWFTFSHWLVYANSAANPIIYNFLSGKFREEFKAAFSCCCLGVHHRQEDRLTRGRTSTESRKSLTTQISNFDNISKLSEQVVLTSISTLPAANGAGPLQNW

Row | SMILES | Emax [%]
1 | COC(=O)N1[C@H](C)C[C@H](NS(=O)(=O)Cc2ccccc2)[C@@H]1CO[C@H]1CC[C@@]2(c3ncc(F)cn3)C[C@H]2C1 [Example 34, methyl (2R,3S,5R)-2-((((1S,3S,6R)-6-(5-fluoropyrimidin-2-yl)bicyclo[4.1.0]heptan-3-yl)oxy)methyl)-5-methyl-3-((phenylmethyl)sulfonamido)pyrrolidine-1-carboxylate] | 96.5
2 | COC(=O)N1[C@H](C)C[C@H](NS(=O)(=O)CC(C)C)[C@@H]1CO[C@H]1CC[C@@]2(c3ncc(F)cn3)C[C@H]2C1 [Example 35, methyl (2R,3S,5R)-2-((((1S,3S,6R)-6-(5-fluoropyrimidin-2-yl)bicyclo[4.1.0]heptan-3-yl)oxy)methyl)-5-methyl-3-((2-methylpropyl)sulfonamido)pyrrolidine-1-carboxylate] | 101
3 | CCS(=O)(=O)N[C@H]1C[C@@H](C)N(C(=O)OC)[C@H]1CO[C@H]1CC[C@@]2(c3ncc(F)cn3)C[C@H]2C1 [Example 36, methyl (2R,3S,5R)-3-(ethylsulfonamido)-2-((((1S,3S,6R)-6-(5-fluoropyrimidin-2-yl)bicyclo[4.1.0]heptan-3-yl)oxy)methyl)-5-methylpyrrolidine-1-carboxylate] | 102
4 | COC(=O)N1[C@H](C)C[C@H](NS(=O)(=O)CCl)[C@@H]1CO[C@H]1CC[C@@]2(c3ncc(F)cn3)C[C@H]2C1 [Example 37, methyl (2R,3S,5R)-3-((chloromethyl)sulfonamido)-2-((((1S,3S,6R)-6-(5-fluoropyrimidin-2-yl)bicyclo[4.1.0]heptan-3-yl)oxy)methyl)-5-methylpyrrolidine-1-carboxylate] | 103
5 | COC(=O)N1[C@H](C)C[C@H](NS(=O)(=O)C(C)C)[C@@H]1CO[C@H]1CC[C@@]2(c3ncc(F)cn3)C[C@H]2C1 [Example 38, methyl (2R,3S,5R)-2-((((1S,3S,6R)-6-(5-fluoropyrimidin-2-yl)bicyclo[4.1.0]heptan-3-yl)oxy)methyl)-5-methyl-3-((1-methylethyl)sulfonamido)pyrrolidine-1-carboxylate] | 100
6 | COC(=O)N1[C@H](C)C[C@H](NS(=O)(=O)N2CCC2)[C@@H]1CO[C@H]1CC[C@@]2(c3ncc(F)cn3)C[C@H]2C1 [Example 39, methyl (2R,3S,5R)-3-(azetidine-1-sulfonamido)-2-((((1S,3S,6R)-6-(5-fluoropyrimidin-2-yl)bicyclo[4.1.0]heptan-3-yl)oxy)methyl)-5-methylpyrrolidine-1-carboxylate] | 103
7 | COC(=O)N1[C@H](C)C[C@H](NS(=O)(=O)C2COC2)[C@@H]1CO[C@H]1CC[C@@]2(c3ncc(F)cn3)C[C@H]2C1 [Example 40, methyl (2R,3S,5R)-2-((((1S,3S,6R)-6-(5-fluoropyrimidin-2-yl)bicyclo[4.1.0]heptan-3-yl)oxy)methyl)-5-methyl-3-(oxetane-3-sulfonamido)pyrrolidine-1-carboxylate] | 102
8 | CCC(C)S(=O)(=O)N[C@H]1C[C@@H](C)N(C(=O)OC)[C@H]1CO[C@H]1CC[C@@]2(c3ncc(F)cn3)C[C@H]2C1 (stereo partly drawn) [Example 41, methyl (2R,3S,5R)-2-((((1S,3S,6R)-6-(5-fluoropyrimidin-2-yl)bicyclo[4.1.0]heptan-3-yl)oxy)methyl)-5-methyl-3-((1-methylpropyl)sulfonamido)pyrrolidine-1-carboxylate] | 104
9 | COC(=O)N1[C@H](C)C[C@H](NS(=O)(=O)C2CC2)[C@@H]1CO[C@H]1CC[C@@]2(c3ncc(F)cn3)C[C@H]2C1 [Example 42, methyl (2R,3S,5R)-3-(cyclopropanesulfonamido)-2-((((1S,3S,6R)-6-(5-fluoropyrimidin-2-yl)bicyclo[4.1.0]heptan-3-yl)oxy)methyl)-5-methylpyrrolidine-1-carboxylate] | 103
